Test results published in patent US20250144250A1, “PH-SENSITIVE FLUOROPHORES” (The General Hospital Corporation, priority 2022, published 2025).

Tests used:
ID8 cells = experiment: Live-cell labeling and in vitro imaging: cellular uptake of NIR fluorophores; assay type: cell-based, murine; details: fluorescence microscopy
Description: FIG. 2 Cellular uptake of pH sensing NIR fluorophores via membrane transporters: In vitro tumor cell uptake of the pH sensing NIR probes under normoxic and hypoxic conditions. Murine cancer cell line ID8 cells were incubated at normoxic or hypoxic conditions (1% O2) for 24 h at 37° C. and then incubated for 30 min in the presence of 0.1 μM NIR probes. (a) Representative fluorescence images of cells are shown. The contrast was normalized across all images. Scale bar=100 μm. (b) Quantitative time-course measurements of the fluorescence intensity in cells. *P<0.05, **P<0.01 by two-way ANOVA followed by Tukey's multiple comparisons test (Normoxia vs. Hypoxia). Error bars show mean #s.d. (c) Inhibition assay of transporters to determine the entry mechanisms in ID8 cells. […] Representative fluorescence images of cells are shown. […] (d) Quantitative measurements of the fluorescence intensity in cells. *P<0.05 by two-way ANOVA followed by Tukey's multiple comparisons test. […]
Live-cell labeling and in vitro imaging: Murine ovarian cancer cells (ID8 cells) were obtained from Dr. Wang's lab in the Vincent Center for Reproductive Biology at Massachusetts General Hospital (MGH). […] Image acquisition and analysis were performed using IPLab software (Scanalytics, Fairfax, VA), and the fluorescent intensity of each cell was measured using ImageJ (National Institutes of Health, Bethesda, MD). […]

[1] = Measurement of optophysical properties (absorbance, fluorescence emission, quantum yield, pH dependence); assay type: physicochemical; details: for Abs λMax / Em λMax / QY (quantum yield) / ε (extinction coefficient): pH 7.4
Description: Measurement of optophysical properties: Absorbance and fluorescence emission spectra of the series of NIR fluorophores were measured using fiber optic HR2000 absorbance (200-1100 nm) and USB2000FL fluorescence (350-1000 nm) spectrometers (Ocean Optics, Dunedin, FL). NIR excitation was provided by a 655 nm red laser pointer (Opcom Inc., Xiamen, China) set to 5 mW and coupled through a 300 μm core diameter, NA 0.22 fiber (Fiberguide Industries, Stirling, NJ). To determine the pH dependence of the fluorescence signal, optical measurements were performed at 37° C. in PBS, pH 4.0-7.4 or 100% FBS buffered with 50 mM HEPES, pH 4.0-7.4. The pH of the solutions was adjusted as appropriate with NaOH and HCl using a pH spear tester (Thermo Scientific). For fluorescence quantum yield (QY) measurements, indocyanine green (ICG) in DMSO (QY=13%) was used as a calibration standard to measure the fluorescence QY under conditions of matched absorbance at 765 nm. In silico calculations of the partition coefficient (LogP and LogD at pH 7.4), surface molecular charge, hydrophobicity, hydrogen bond acceptors/donors (HBA/HBD), the acid dissociation constant (pKa), and topological polar surface area (TPSA) were calculated using Marvin and JChem calculator plugins (ChemAxon, Budapest, Hungary). Theoretical calculations of HOMO and LUMO energy levels of fluorophores were performed based on density functional theory (DFT) with a 6-311 G basis set using Spartan 18 software (Wavefunction, Irvine, CA). […]

CCN1/C(=C/C=C2\CCCC(/C=C/C3=[N+](CC)c4ccccc4C3(C)C)=C2c2ccccc2)C(C)(C)c2ccccc21 [PH03, 1-Ethyl-2-((E)-2-((E)-6-(2-((E)-1-ethyl-3,3-dimethylindolin-2-ylidene)ethylidene)-3,4,5,6-tetrahydro-[1,1′-biphenyl]-2-yl)vinyl)-3,3-dimethyl-3H-indol-1-ium iodide]
accumulation in cells (ID8 cells): time-dependent manner | optical response to pH [1]: little to no change in response to pH | Abs λMax [1]: 765 nm | Em λMax [1]: 785 nm | QY (quantum yield) [1]: 21.7% | ε (extinction coefficient) [1]: 364,800 M^−1cm^−1

CCN1/C(=C/C=C2\CCCC(/C=C/C3=[N+](CC)c4ccccc4C3(C)C)=C2N2CCNCC2)C(C)(C)c2ccccc21 [PH08]
accumulation in cells (ID8 cells): time-dependent manner | optical response to pH [1]: increases its fluorescence in mildly acidic conditions between pH 7.0 and 4.0 | absorbance wavelength before red-shift ([1]; neutral pH (7.4)): 710 nm | molecular absorbance ε at 760 nm ([1]; neutral pH condition (pH=7.4)): 92,600 M^−1 cm^−1 | absorbance wavelength after red-shift ([1]; pH 4.0): 765 nm | Abs λMax [1]: 710 nm | Em λMax [1]: 794 nm | QY (quantum yield) [1]: 16.0% | ε (extinction coefficient) [1]: 43,800 M^−1cm^−1 | molecular absorbance ε at 760 nm ([1]; pH decreases to 4.0): 134,500 M^−1 cm^−1
